Measurements from patent US10988465B2, “CXCR4 inhibitors and uses thereof” (X4 Pharmaceuticals, Inc., priority 2016, dated 2021).
Values joined by “and” are separate entries in the source; they are usually repeats but may differ in a detail not shown here. Equal values may be shown once. Read-outs that look alike come from different tables or passages of the source.

Key:
[1] = Mouse brain uptake assay (MBUA), 3 mg/kg IV, 0-24 h, 4 time points; assay type: in vivo, male CD1 mice
Description: Example 38: Pharmacokinetics and Brain Penetration Experiment to Determine Brain and Plasma Concentrations of Compounds after IV Administration to Male CD1 Mice
The study design (9 animals) consisted of administrating the drug (IV: 3 mg/kg (5 mL/kg) via tail vein injection) and collecting samples at terminal bleeding for plasma and brain at 0.083, 0.5 and 1 h. The IV dosing solution was prepared in 50 mM citrate buffer (pH 4.0) at 0.6 mg/mL. The blood collection was performed as follows: the animal was restrained manually and approximately 150 μL blood/time point was collected into a dipotassium EDTA tube via retro orbital puncture under anesthesia with isoflurane. The blood sample was put on ice and centrifuged to obtain a plasma sample (2000 g, 5 min under 4° C.) within 15 minutes. The brain collection was performed as follows: a mid-line incision was made in the animal's scalp and the skin was retracted. Using small bone cutters and rongeurs, the skull overlying the brain was removed. The brain was removed using a spatula and the brain rinsed with cold saline. The brain was placed in screw-top tubes, and the tubes were stored at −70° C. until analysis.
An aliquot of 30 μL sample was added to 150 μL MeCN containing 50 ng/mL IS (Dexamethasone). The mixture was vortexed for 5 min and centrifuged at 14,000 rpm for 5 min. An aliquot of 5 μL supernatant was injected for LC-MS/MS analysis.
An aliquot of 30 μL brain homogenate (brain:PBS=1:3, w/v) sample was added to 150 μL IS in MeCN (Dexamethasone, 50 ng/mL). The mixture was vortexed for 5 min and centrifuged at 14,000 rpm for 5 min. An aliquot of 5 μL supernatant was injected for LC-MS/MS analysis.
The sample analysis was performed on LCMS/MS-003 (API4000, triple quadruple) under the following conditions: positive ion, ESI, MRM detection using dexamethasone as internal standard. HPLC conditions: mobile phase A: H2O (0.025% formic acid (FA) with 1 mM NH4OAc); mobile phase B: MeOH (0.025% FA with 1 mM NH4OAc) on Waters X-Bridge C18 (2.1×50 mm, 2.5 μm) column at 60° C.
A similar experiment was performed with 4 time points taken from 0-24 h.

[2] = 7-day toxicology study in mice (clinical observations, body weight, food consumption, necropsy, hematology); assay type: in vivo, male C57BL/6 mice; conditions: for WBC (10^9/L), Mean: group mean; for WBC (10^9/L), Mean / WBC (10^9/L): day 8, 24 hours after last dose; for WBC (10^9/L): individual animal
Description: Example 41: 7-Day Toxicology Study in Mice
Blood samples were taken on day 8, 24 hours after last dose.

[3] = MTD, pharmacokinetics and brain penetration after PO administration; assay type: in vivo, male C57BL/6 mice; conditions: male; for half-life: MTD mouse, read-out: t½ (converted); for AUC(0-t): C57BL/6, mouse
Description: All PO dosing solutions were prepared in 50 mM citrate buffer (pH 4.0).
The blood collection was performed as follows: the animal was restrained manually at the designated time points, approximately 500 μL of blood sample was collected via cardiac puncture vein into EDTA-2K tubes. The whole blood needed to be divided into two parts; one part was placed in the tube containing EDTA-2K for plasma generation and the other was used for the hematology assay, respectively. The blood samples for plasma generation were maintained in wet ice first and centrifuged to obtain plasma (2000 g, 4° C., 5 min) within 15 minutes post sampling. The brain collection was performed as follows: a mid-line incision was made in the animal's scalp and the skin was retracted. Using small bone cutters and rongeurs, the skull overlying the brain was removed. The brain was removed using a spatula and rinsed with cold saline. The brain was placed in screw-top tubes, and then stored at −70° C. until analysis. The CSF collection was performed as follows: a mid line incision was made on the neck. The muscle under the skin was cut to expose the cisterna magna. The cisterna magna was penetrated with the sharp end of one capillary (Burn one end of capillary to make it sharp). The CSF was sucked spontaneously into the capillary.
Plasma sample preparation: An aliquot of 30 μL sample was added with 100 μL MeCN containing 100 ng/mL IS (Dexamethasone). The mixture was vortexed for 10 min and centrifuged at 5800 rpm for 10 min. An aliquot of 40 μL supernatant was added to 40 μL H2O and the mixture was vortexed for 5 min. An aliquot of 2 μL supernatant was injected for LC-MS/MS analysis.
An aliquot of 30 μL brain homogenate (brain:PBS=1:3, w/v) sample was added to 100 μL MeCN containing 100 ng/mL IS (Dexamethasone). The mixture was vortexed for 10 min and centrifuged at 5800 rpm for 10 min. An aliquot of 40 μL supernatant was added to 40 μL H2O and the mixture was vortexed for 5 min. An aliquot of 2 μL supernatant was injected for LC-MS/MS analysis.
An aliquot of 3 μL sample was added to a mixture of 6 μL CSF, 9 μL MeOH/H2O (1/1), 40 μL MeCN containing 200 ng/mL IS (Dexamethasone), and 116 μL H2O. The mixture was vortexed for 5 min. An aliquot of 4 μL was injected for LC-MS/MS analysis.
The sample analysis was performed on UPLC-MS/MS-02 (Triple Quad™ 4000) under the following conditions: positive ion, ESI, MRM detection using dexamethasone as internal standard. HPLC conditions: mobile phase A: H2O-0.1% formic acid, mobile phase B: MeCN-0.1% formic acid on: ACQUITY UPLC HSS T3 (2.1×50 mm, 1.8 μm) at 60° C.

Compound: CN1CCN(c2cccc3nc([C@H]4CCC[C@@H](c5ncccc5Cl)N4)[nH]c23)CC1 (racemic) [I-122]
- Kp ([1]; male, CD1, mouse, brain/plasma, iv, 3 mg/kg): 4.17
- clearance ([1]; male, CD1, plasma, mouse, 3 mg/kg IV, 0-24 h, 4 time points): 26.2 mL/min/kg
- half-life ([1]; male, CD1, plasma, mouse, 3 mg/kg IV, 0-24 h, 4 time points, read-out: t½ (converted)): 3.5 h
- AUC(0-t) ([1]; male, CD1, brain, mouse, 3 mg/kg IV, 0-24 h, read-out: AUClast (b)): 7930 ng·h/mL
- AUC(0-t) ([1]; male, CD1, plasma, mouse, 3 mg/kg IV, 0-24 h, read-out: AUClast (P)): 1900 ng·h/mL
- Kp uu ([1]; male, CD1, unbound brain/unbound plasma, mouse, 3 mg/kg IV, 0-24 h): 1.15
- fraction unbound ([1]; mouse, fraction unbound to brain proteins, read-out: Fu (b) %): 0.035
- fraction unbound ([1]; mouse, fraction unbound to plasma proteins, read-out: Fu (p) %): 0.127

Compound: Cc1cccnc1[C@@H]1CCC[C@H](c2nc3cccc(N4CCN(C)CC4)c3[nH]2)N1C (racemic) [I-3, 2-((2R,6S)-1-methyl-6-(3-methylpyridin-2-yl)piperidin-2-yl)-7-(4-methylpiperazin-1-yl)-1H-benzo[d]imidazole]
- WBC (10^9/L), Mean ([2]; Group 2, PO-10 mg/kg): 4.92 10^9/L
- WBC (10^9/L) ([2]; Group 2, PO-10 mg/kg, 10 mg/kg): 3.67 10^9/L and 6.66 10^9/L and 4.44 10^9/L
- WBC (10^9/L), Mean ([2]; Group 3, PO-30 mg/kg): 8.58 10^9/L
- WBC (10^9/L) ([2]; Group 3, PO-30 mg/kg, 30 mg/kg): 11.6 10^9/L and 6.51 10^9/L and 7.69 10^9/L
- WBC (10^9/L), Mean ([2]; Group 4, PO-100 mg/kg): 18.7 10^9/L
- WBC (10^9/L) ([2]; Group 4, PO-100 mg/kg, 100 mg/kg): 20.4 10^9/L
- necropsy finding ([2]; dose of 30 mg/kg P.O., 7 days): One mouse had an enlarged kidney
- white blood cells ([2]; dose of 100 mg/kg P.O., 7 days): sustained increase
- overt toxicity (clinical observations, body weight, food consumption) ([2]; male C57BL/6 mice, 7 days repeat dosing up to 100 mg/kg/day by oral gavage): no overt signs of toxicity
- body weight ([2]; male C57BL/6 mice, 7 days, up to 100 mg/kg/day by oral gavage): remained stable
- half-life ([3]; C57BL/6, in vivo, single administration, D 1-50 mg/kg): 3.3 h
- AUC(0-t) ([3]; brain, multiple administration, D 5-300 mg/kg, read-out: AUClast (b)): 384000 ng·h/mL
- AUC(0-t) ([3]; brain, single administration, D 1-50 mg/kg, read-out: AUClast (b)): 15500 ng·h/mL
- AUC(0-t) ([3]; plasma, multiple administration, D 5-300 mg/kg, read-out: AUClast (p)): 142000 ng·h/mL
- AUC(0-t) ([3]; plasma, single administration, D 1-50 mg/kg, read-out: AUClast (p)): 7100 ng·h/mL
- half-life ([3]; C57BL/6, plasma, multiple administration, D 5-300 mg/kg): 6.1 h
